Source: patent US20190085289A1, “COMPOSITIONS AND METHODS FOR PATHOGEN INACTIVATION OF PLATELETS” (Cerus Corporation, priority 2017, published 2019)
Marks after values point to notes of the source that are not given here.

Columns and labels:
calicivirus FCV = experiment: FCV inactivation with 150 μM S-59 after pre-incubation in PAS/Plasma, plaque assay; type: cell-based, feline calicivirus (FCV); conditions: for Normalized FCV Log Inactivation/mL / FCV Log Inactivation/mL / FCV Titer, 3J TEST: S-59 ~150 μM, UVA ~3 J/cm^2; for Normalized FCV Log Inactivation/mL: normalized to the FCV pool titer; for FCV Log Inactivation/mL: vs 0J control of same time; for FCV Titer, 3J TEST: platelets in PAS/Plasma 65%/35%
Protocol: From the results of Examples 1 and 2, showing that amotosalen is stable in PAS and PAS/Plasma, an additional study was performed that evaluated the level of inactivation of the calicivirus FCV with S-59 after extended incubation in PAS/Plasma. In this study, platelets in PAS/Plasma (65%/35%) were pooled to approximately 1320 mL, with approximately 16×10^11 total platelets, and spiked with a stock of the calicivirus FCV at a 1:100 dilution. A sample was taken from the FCV-spiked platelet pool to determine initial titer. The FCV-spiked platelets were then split into 5 units, at approximately 260 mL each, with approximately 3.2×10^11 platelets per unit. Each unit was dosed with S-59 at approximately 150 μM concentration, which is the concentration used commercially in the INTERCEPT® Blood System for pathogen inactivation treatment. Following the addition of S-59, the platelet units were incubated for 0, 2, 4, 8 or 24 hr. A control sample was taken at each time point for virus titer determination and HPLC analysis of S-59 concentration pre-UVA treatment, followed by UVA light exposure at ˜3 J/cm^2 to complete the photochemical treatment process for all test samples. Following UVA treatment, the control and test samples were evaluated for inactivation of FCV using a standard virological plaque assay.

[1] = tested on: Caliciviruses, such as feline calicivirus (FCV); conditions: photochemical inactivation, Irsch et al. 2011; cited from earlier work
[2] = Stability of S-59 in InterSol PAS protected from ambient light (HPLC); type: physicochemical; conditions: for S-59 UV peak area (HPLC) / S-59 concentration (HPLC): 230 μM in InterSol PAS, room temp, protected from light
Protocol: Additional studies evaluated stability of the S-59 (amotosalen) pathogen inactivation compound formulated in a platelet additive solution (PAS), but protected from ambient light exposure. A 230 μM solution of S-59 was prepared in the commercially available PAS solution InterSol® (Fenwal Inc.) and maintained at room temperature protected from ambient light conditions. HPLC analysis was performed on samples at times listed in Table 2 for both S-59 and photoproducts.

[3] = Stability of S-59 in InterSol PAS under ambient light (HPLC); type: physicochemical; conditions: for S-59 UV peak area (HPLC) / S-59 concentration (HPLC): 230 μM in InterSol PAS, room temp
Protocol: Initial studies evaluated stability of the pathogen inactivation compound amotosalen (S-59) that was formulated in a platelet additive solution (PAS). A 230 μM solution of psoralen compound S-59 (Irsch et al., Transfus Med Hemother, 38: 19-31 (2011)) was prepared in the commercially available PAS solution InterSol® (Fenwal Inc.) and maintained at room temperature under ambient light conditions. HPLC analysis was performed on samples at times listed in Table 1 for both S-59 and photoproducts. […] S-59 data are shown as both concentration (μM), as well as peak area (S-59 UV) for relative comparison to any photoproducts detected with HPLC (Table 1). Peak D and Peak E photoproducts also were observed by 22 hr and 72 hr, respectively, as well as process impurity decomposition product 4′-HMT, with peak area values indicated (Table 1).

[4] = Post-UVA residual S-59 concentration in FCV-spiked platelets (HPLC); type: physicochemical; conditions: for Post-UVA S-59 concentration: UVA ~3 J/cm^2
Protocol: An additional study was performed to evaluate the level of FCV inactivation with decreasing amounts of S-59 after extended incubation (e.g., pre-incubation) in PAS/Plasma. In this study, platelets in PAS/Plasma (65%/35%) were spiked with a stock of FCV at a 1:100 dilution. The FCV-spiked platelets were then split into 16 separate test units. Each unit was dosed with S-59 at approximately 150 μM, 90 μM, 30 μM or 15 μM concentration. Following the addition of S-59 in one of four dosing groups, the platelet units in each dosing group were incubated for 0, 4, 8 or 24 hr prior to illumination. A control sample was taken from each unit for virus titer determination and HPLC analysis of S-59 concentration pre-UVA treatment, followed by UVA light exposure at ˜3 J/cm^2 for photochemical treatment of the test samples. Following UVA treatment, the control and test samples were evaluated for inactivation of FCV using a standard virological plaque assay.
HPLC analysis also was performed to determine the amount (e.g., concentration) of S-59 remaining in samples after UVA illumination and photoconversion (Table 10).

Q: With `Cc1oc2c(C)c3oc(=O)cc(C)c3cc2c1COCCN` [S-59, 3-(2-aminoethoxymethyl)-2,5,9-trimethylfuro[3,2-g]chromen-7-one] as the compound, how does the “level of FCV inactivation” value (calicivirus FCV; S-59/PAS/Plasma incubated 2 or more hours prior to UVA exposure) read?
A: below the limit of detection

Q: What about the “Normalized FCV Log Inactivation/mL” value (calicivirus FCV; pre-incubation T = 0 hr) of the same compound?
A: 1.4 Log/mL

Q: And the “FCV Log Inactivation/mL” value (calicivirus FCV; pre-incubation T = 0 hr)?
A: 1.2 Log/mL

Q: What about the “Normalized FCV Log Inactivation/mL” value (calicivirus FCV; pre-incubation T = 2 hr) of the same compound?
A: >5.8 Log/mL

Q: And the “FCV Log Inactivation/mL” value (calicivirus FCV; pre-incubation T = 2 hr)?
A: >5.4 Log/mL

Q: What about the “Normalized FCV Log Inactivation/mL” value (calicivirus FCV; pre-incubation T = 4 hr) of the same compound?
A: >5.8 Log/mL

Q: What about the “FCV Log Inactivation/mL” value (calicivirus FCV; pre-incubation T = 4 hr) of the same compound?
A: >5.7 Log/mL

Q: What about the “Normalized FCV Log Inactivation/mL” value (calicivirus FCV; pre-incubation T = 8 hr) of the same compound?
A: >5.8 Log/mL

Q: What about the “FCV Log Inactivation/mL” value (calicivirus FCV; pre-incubation T = 8 hr) of the same compound?
A: >5.2 Log/mL

Q: What about the “Normalized FCV Log Inactivation/mL” value (calicivirus FCV; pre-incubation T = 24 hr) of the same compound?
A: >5.8 Log/mL

Q: And the “FCV Log Inactivation/mL” value (calicivirus FCV; pre-incubation T = 24 hr)?
A: >5.1 Log/mL

Q: What about the “FCV Titer, 3J TEST” value (calicivirus FCV; pre-incubation T = 0 hr) of the same compound?
A: 4.6 Log PFU/mL

Q: What about the “FCV Titer, 3J TEST” value (calicivirus FCV; pre-incubation T = 2 hr) of the same compound?
A: <0.22* Log PFU/mL

Q: And the “FCV Titer, 3J TEST” value (calicivirus FCV; pre-incubation T = 4 hr)?
A: <0.22* Log PFU/mL

Q: And the “FCV Titer, 3J TEST” value (calicivirus FCV; pre-incubation T = 8 hr)?
A: <0.22* Log PFU/mL

Q: What about the “FCV Titer, 3J TEST” value (calicivirus FCV; pre-incubation T = 24 hr) of the same compound?
A: <0.22* Log PFU/mL

Q: What about the “log10 reduction in titer” value [1] of the same compound?
A: 1.7-2.4 log10

Q: And the “S-59 UV peak area (HPLC)” value ([2]; 5.5 hr)?
A: 3451.6489

Q: And the “S-59 concentration (HPLC)” value ([2]; 5.5 hr)?
A: 232.74 µM

Q: And the “S-59 UV peak area (HPLC)” value ([2]; 21.5 hr)?
A: 3439.4907

Q: What about the “S-59 concentration (HPLC)” value ([2]; 21.5 hr) of the same compound?
A: 231.93 µM

Q: And the “S-59 UV peak area (HPLC)” value ([2]; 28.5 hr)?
A: 3421.447

Q: What about the “S-59 concentration (HPLC)” value ([2]; 28.5 hr) of the same compound?
A: 230.72 µM

Q: And the “S-59 UV peak area (HPLC)” value ([2]; 44 hr)?
A: 3425.1028

Q: What about the “S-59 concentration (HPLC)” value ([2]; 44 hr) of the same compound?
A: 230.96 µM

Q: And the “S-59 UV peak area (HPLC)” value ([2]; 45.5 hr)?
A: 3399.0142

Q: What about the “S-59 concentration (HPLC)” value ([2]; 45.5 hr) of the same compound?
A: 229.22 µM

Q: What about the “S-59 UV peak area (HPLC)” value ([2]; 53 hr) of the same compound?
A: 3421.4934

Q: And the “S-59 concentration (HPLC)” value ([2]; 53 hr)?
A: 230.72 µM

Q: What about the “S-59 UV peak area (HPLC)” value ([2]; 77 hr) of the same compound?
A: 3446.6414

Q: What about the “S-59 concentration (HPLC)” value ([2]; 77 hr) of the same compound?
A: 232.41 µM

Q: What about the “S-59 UV peak area (HPLC)” value ([2]; T 0) of the same compound?
A: 3393.0647

Q: And the “S-59 concentration (HPLC)” value ([2]; T 0)?
A: 228.82 µM

Q: And the “loss of S-59” value ([2]; InterSol PAS, protected from ambient light, at 77 hours)?
A: no loss

Q: What about the “S-59 UV peak area (HPLC)” value ([3]; 5 hr) of the same compound?
A: 3593.309

Q: And the “S-59 concentration (HPLC)” value ([3]; 5 hr)?
A: 230.62 µM

Q: What about the “S-59 UV peak area (HPLC)” value ([3]; 6 hr) of the same compound?
A: 3575.825

Q: What about the “S-59 concentration (HPLC)” value ([3]; 6 hr) of the same compound?
A: 229.50 µM

Q: What about the “S-59 UV peak area (HPLC)” value ([3]; 22 hr) of the same compound?
A: 3485.467

Q: What about the “S-59 concentration (HPLC)” value ([3]; 22 hr) of the same compound?
A: 223.71 µM

Q: What about the “S-59 UV peak area (HPLC)” value ([3]; 30 hr) of the same compound?
A: 3529.854

Q: And the “S-59 concentration (HPLC)” value ([3]; 30 hr)?
A: 226.56 µM

Q: And the “S-59 UV peak area (HPLC)” value ([3]; 47 hr)?
A: 3486.293

Q: What about the “S-59 concentration (HPLC)” value ([3]; 47 hr) of the same compound?
A: 223.76 µM

Q: What about the “S-59 UV peak area (HPLC)” value ([3]; 56 hr) of the same compound?
A: 3440.455

Q: What about the “S-59 concentration (HPLC)” value ([3]; 56 hr) of the same compound?
A: 220.82 µM

Q: What about the “S-59 UV peak area (HPLC)” value ([3]; 72 hr) of the same compound?
A: 3534.894

Q: What about the “S-59 concentration (HPLC)” value ([3]; 72 hr) of the same compound?
A: 226.88 µM

Q: What about the “S-59 UV peak area (HPLC)” value ([3]; 78 hr) of the same compound?
A: 3485.093

Q: What about the “S-59 concentration (HPLC)” value ([3]; 78 hr) of the same compound?
A: 223.69 µM

Q: And the “S-59 UV peak area (HPLC)” value ([3]; T 0)?
A: 3700.439

Q: What about the “S-59 concentration (HPLC)” value ([3]; T 0) of the same compound?
A: 237.49 µM

Q: And the “loss of S-59” value ([3]; InterSol PAS, at 78 hours)?
A: < 6%

Q: What about the “Post-UVA S-59 concentration” value ([4]; Input S-59 15 μM, pre-incubation 0 hr) of the same compound?
A: 3 µM

Q: What about the “Post-UVA S-59 concentration” value ([4]; Input S-59 15 μM, pre-incubation 4 hr) of the same compound?
A: 2 µM

Q: What about the “Post-UVA S-59 concentration” value ([4]; Input S-59 15 μM, pre-incubation 8 hr) of the same compound?
A: 2 µM

Q: And the “Post-UVA S-59 concentration” value ([4]; Input S-59 15 μM, pre-incubation 24 hr)?
A: 2 µM

Q: And the “Post-UVA S-59 concentration” value ([4]; Input S-59 30 μM, pre-incubation 0 hr)?
A: 5 µM

Q: What about the “Post-UVA S-59 concentration” value ([4]; Input S-59 30 μM, pre-incubation 4 hr) of the same compound?
A: 2 µM

Q: What about the “Post-UVA S-59 concentration” value ([4]; Input S-59 30 μM, pre-incubation 8 hr) of the same compound?
A: 2 µM

Q: What about the “Post-UVA S-59 concentration” value ([4]; Input S-59 30 μM, pre-incubation 24 hr) of the same compound?
A: 3 µM

Q: And the “Post-UVA S-59 concentration” value ([4]; Input S-59 90 μM, pre-incubation 0 hr)?
A: 14 µM

Q: What about the “Post-UVA S-59 concentration” value ([4]; Input S-59 90 μM, pre-incubation 4 hr) of the same compound?
A: 10 µM

Q: And the “Post-UVA S-59 concentration” value ([4]; Input S-59 90 μM, pre-incubation 8 hr)?
A: 11 µM

Q: And the “Post-UVA S-59 concentration” value ([4]; Input S-59 90 μM, pre-incubation 24 hr)?
A: 9 µM

Q: What about the “Post-UVA S-59 concentration” value ([4]; Input S-59 150 μM, pre-incubation 0 hr) of the same compound?
A: 29 µM

Q: And the “Post-UVA S-59 concentration” value ([4]; Input S-59 150 μM, pre-incubation 4 hr)?
A: 33 µM

Q: And the “Post-UVA S-59 concentration” value ([4]; Input S-59 150 μM, pre-incubation 8 hr)?
A: 22 µM

Q: What about the “Post-UVA S-59 concentration” value ([4]; Input S-59 150 μM, pre-incubation 24 hr) of the same compound?
A: 19 µM

Q: And the “residual S-59 concentration post-treatment” value ([4]; S-59 dosing groups with pre-incubation, levels reached)?
A: less than 5 μM

Q: And the “residual S-59 concentration” value ([4]; conditions giving high levels of inactivation (e.g., >4 logs))?
A: 2 µM
